Measured values as given in US11420958B2, “Aryl and heteroaryl substituted indole compounds” (BRISTOL-MYERS SQUIBB COMPANY, priority 2017, dated 2022).

Legend:
Assay type in all cases: cell-based
human TLR7 = human TLR7 (Homo sapiens (Human), UniProt Q9NYK1); test: TLR7 inhibition reporter assay (HEK-Blue, SEAP); details: HEK-Blue cells overexpressing human TLR7, gardiquimod 7.5 μM stimulation
Summary of the method: (§1)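 SEAP read-out via detection medium after 22 h at 37 °C, 5% CO2; percent inhibition relative to agonist-plus-DMSO and known-inhibitor wells. Agonists: TLR7 gardiquimod 7.5 μM, TLR8 R848 15.9 μM, TLR9 ODN2006 5 nM (final). Compound range 0.05 nM–50 μM, 30 min pre-treatment.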

human TLR8 = human TLR8 (Homo sapiens (Human), UniProt Q9NR97); test: TLR8 inhibition reporter assay (HEK-Blue, SEAP); details: HEK-Blue cells overexpressing human TLR8, R848 15.9 μM stimulation
human TLR8, sequence (Q9NR97 27-1041): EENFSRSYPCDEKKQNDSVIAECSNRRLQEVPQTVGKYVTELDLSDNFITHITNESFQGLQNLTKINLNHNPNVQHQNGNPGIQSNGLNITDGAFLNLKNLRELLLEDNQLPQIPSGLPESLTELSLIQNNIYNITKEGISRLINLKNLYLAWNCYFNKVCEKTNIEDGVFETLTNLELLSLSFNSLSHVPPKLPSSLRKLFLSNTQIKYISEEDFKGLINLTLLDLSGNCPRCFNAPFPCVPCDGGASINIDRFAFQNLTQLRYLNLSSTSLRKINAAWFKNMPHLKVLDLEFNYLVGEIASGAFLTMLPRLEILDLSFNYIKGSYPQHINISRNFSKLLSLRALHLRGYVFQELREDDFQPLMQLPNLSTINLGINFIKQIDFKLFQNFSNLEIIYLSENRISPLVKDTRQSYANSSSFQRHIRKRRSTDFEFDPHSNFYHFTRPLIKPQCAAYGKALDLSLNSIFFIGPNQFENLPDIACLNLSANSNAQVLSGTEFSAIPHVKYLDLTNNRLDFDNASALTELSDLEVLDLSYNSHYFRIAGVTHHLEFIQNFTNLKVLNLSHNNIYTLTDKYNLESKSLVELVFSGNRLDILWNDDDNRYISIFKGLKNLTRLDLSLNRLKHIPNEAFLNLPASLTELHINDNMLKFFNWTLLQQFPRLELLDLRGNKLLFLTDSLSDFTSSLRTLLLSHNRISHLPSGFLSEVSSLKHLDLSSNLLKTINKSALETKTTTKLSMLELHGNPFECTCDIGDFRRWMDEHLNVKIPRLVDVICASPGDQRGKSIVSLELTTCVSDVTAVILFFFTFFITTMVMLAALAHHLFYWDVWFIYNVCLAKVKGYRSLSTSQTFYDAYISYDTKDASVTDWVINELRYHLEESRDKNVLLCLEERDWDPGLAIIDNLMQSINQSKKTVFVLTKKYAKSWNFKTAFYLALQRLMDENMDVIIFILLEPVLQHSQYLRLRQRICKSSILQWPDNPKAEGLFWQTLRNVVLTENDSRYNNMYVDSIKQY
Summary of the method: as §1

human TLR9 = human TLR9 (Homo sapiens (Human), UniProt Q9NR96); test: TLR9 inhibition reporter assay (HEK-Blue, SEAP); details: HEK-Blue cells overexpressing human TLR9, ODN2006 5 nM stimulation
human TLR9, sequence (Q9NR96 26-1032): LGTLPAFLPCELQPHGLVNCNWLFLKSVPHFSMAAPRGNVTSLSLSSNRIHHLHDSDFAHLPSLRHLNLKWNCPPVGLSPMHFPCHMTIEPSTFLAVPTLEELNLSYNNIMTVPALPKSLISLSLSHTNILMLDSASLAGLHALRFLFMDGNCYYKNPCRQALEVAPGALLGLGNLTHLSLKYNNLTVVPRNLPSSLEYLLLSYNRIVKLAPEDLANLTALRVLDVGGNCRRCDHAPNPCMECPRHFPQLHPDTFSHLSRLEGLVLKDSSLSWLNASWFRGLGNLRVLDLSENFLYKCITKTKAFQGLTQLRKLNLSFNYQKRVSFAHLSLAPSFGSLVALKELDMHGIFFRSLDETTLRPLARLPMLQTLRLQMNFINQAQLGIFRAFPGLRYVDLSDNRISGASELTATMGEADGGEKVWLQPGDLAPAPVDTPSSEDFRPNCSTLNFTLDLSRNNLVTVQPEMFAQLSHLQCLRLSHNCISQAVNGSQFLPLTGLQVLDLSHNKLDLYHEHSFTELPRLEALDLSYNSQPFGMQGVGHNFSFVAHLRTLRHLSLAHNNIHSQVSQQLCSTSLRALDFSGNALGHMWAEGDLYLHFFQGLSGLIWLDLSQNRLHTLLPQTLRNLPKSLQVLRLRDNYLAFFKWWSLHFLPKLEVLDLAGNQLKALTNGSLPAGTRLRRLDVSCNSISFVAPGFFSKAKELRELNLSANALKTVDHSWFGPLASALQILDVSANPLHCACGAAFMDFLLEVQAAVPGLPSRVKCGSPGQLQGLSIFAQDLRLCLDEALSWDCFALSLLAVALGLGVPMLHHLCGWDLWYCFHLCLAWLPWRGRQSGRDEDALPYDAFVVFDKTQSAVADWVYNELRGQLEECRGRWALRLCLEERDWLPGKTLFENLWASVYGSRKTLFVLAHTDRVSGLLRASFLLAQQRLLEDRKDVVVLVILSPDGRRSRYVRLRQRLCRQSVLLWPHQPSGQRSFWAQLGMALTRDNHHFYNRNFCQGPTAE
Summary of the method: as §1

human TLR7, sequence (Q9NYK1 27-1049): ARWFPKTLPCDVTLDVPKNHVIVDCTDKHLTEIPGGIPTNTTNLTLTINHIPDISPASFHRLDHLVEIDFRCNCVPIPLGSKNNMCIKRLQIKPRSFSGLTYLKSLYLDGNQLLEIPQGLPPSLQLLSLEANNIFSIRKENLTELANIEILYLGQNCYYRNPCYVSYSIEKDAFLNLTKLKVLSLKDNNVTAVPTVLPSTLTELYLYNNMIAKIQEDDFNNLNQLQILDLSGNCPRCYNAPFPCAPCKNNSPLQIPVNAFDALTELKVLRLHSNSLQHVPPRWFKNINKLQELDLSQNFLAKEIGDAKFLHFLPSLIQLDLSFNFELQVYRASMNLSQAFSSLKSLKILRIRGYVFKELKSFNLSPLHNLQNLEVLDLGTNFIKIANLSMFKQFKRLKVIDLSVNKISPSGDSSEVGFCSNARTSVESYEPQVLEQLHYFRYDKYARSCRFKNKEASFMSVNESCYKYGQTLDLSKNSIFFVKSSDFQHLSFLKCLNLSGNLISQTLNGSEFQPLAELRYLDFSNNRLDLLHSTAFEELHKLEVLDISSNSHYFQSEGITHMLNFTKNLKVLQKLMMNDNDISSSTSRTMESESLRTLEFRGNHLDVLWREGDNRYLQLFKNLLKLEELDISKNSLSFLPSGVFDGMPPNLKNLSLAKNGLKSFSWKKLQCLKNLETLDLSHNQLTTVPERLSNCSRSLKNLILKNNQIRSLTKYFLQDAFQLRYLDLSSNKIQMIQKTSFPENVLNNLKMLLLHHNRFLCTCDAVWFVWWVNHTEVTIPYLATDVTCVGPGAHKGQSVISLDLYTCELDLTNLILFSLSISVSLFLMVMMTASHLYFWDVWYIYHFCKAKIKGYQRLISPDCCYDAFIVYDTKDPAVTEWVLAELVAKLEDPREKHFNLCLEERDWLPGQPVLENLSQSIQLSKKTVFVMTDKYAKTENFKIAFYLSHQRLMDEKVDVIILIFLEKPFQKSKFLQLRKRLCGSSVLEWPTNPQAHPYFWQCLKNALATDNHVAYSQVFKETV

Compound	IC50 (human TLR7) [µM]	IC50 (human TLR8) [µM]	IC50 (human TLR9) [µM]
Cc1cc(-c2[nH]c3ccc(-c4ccc(C(=O)N5CCC(N(C)C)CC5)cc4)cc3c2C(C)C)ccn1 [Example 313, (4-(dimethylamino)piperidin-1-yl)(4-(3-isopropyl-2-(2-methylpyridin-4-yl)-1H-indol-5-yl)phenyl)methanone]	0.013	0.0047	0.326
Cc1cc(-c2[nH]c3ccc(-c4ccc(N)nn4)cc3c2C(C)C)ccn1 [Example 360, 6-(3-isopropyl-2-(2-methylpyridin-4-yl)-1H-indol-5-yl)pyridazin-3-amine]	0.058	0.016	27
CC(C)c1c(-c2ccnc3[nH]ncc23)[nH]c2ccc(-c3cccc(S(N)(=O)=O)c3)cc12 [Example 415, 3-(3-isopropyl-2-(1H-pyrazolo[3,4-b]pyridin-4-yl)-1H-indol-5-yl)benzenesulfonamide]	0.82	0.056	> 50
COc1ccc(-c2[nH]c3ccc(-c4ccnc(C(=O)NC5CCN(C(C)C)CC5)c4)cc3c2C(C)C)cc1OC [Example 11, 4-(2-(3,4-dimethoxyphenyl)-3-isopropyl-1H-indol-5-yl)-N-(1-isopropylpiperidin-4-yl)picolinamide]	0.022	0.018	0.665
Cc1cc(-c2[nH]c3ccc(-c4cc5c(s4)CN(C(=O)C[C@H](C)O)CC5)cc3c2C(C)C)cc(C)n1 [Example 351, (S)-1-(2-(2-(2,6-dimethylpyridin-4-yl)-3-isopropyl-1H-indol-5-yl)-4,7-dihydrothieno[2,3-c]pyridin-6(5H)-yl)-3-hydroxybutan-1-one]	0.064	0.046	32.9
CC(C)c1c(-c2ccnc3[nH]ncc23)[nH]c2ccc(-c3cc4c(s3)CNCC4)cc12 [Example 229, 2-(3-isopropyl-2-(1H-pyrazolo[3,4-b]pyridin-4-yl)-1H-indol-5-yl)-4,5,6,7-tetrahydrothieno[2,3-c]pyridine]	0.032	0.0015	0.961
CNCCNc1ccc(-c2ccc3[nH]c(-c4cc(C)nc(C)c4)c(C(C)C)c3c2)cn1 [Example 239, N1-(5-(2-(2,6-dimethylpyridin-4-yl)-3-isopropyl-1H-indol-5-yl)pyridin-2-yl)-N2-methylethane-1,2-diamine]	0.0048	0.0022	0.589
Cc1cc(-c2[nH]c3ccc(-c4nnc(C5CCCNC5)[nH]4)cc3c2C(C)C)ccn1 (stereo not drawn) [Example 184, 3-isopropyl-2-(2-methylpyridin-4-yl)-5-(5-(piperidin-3-yl)-4H-1,2,4-triazol-3-yl)-1H-indole]	0.071	0.077	7.48
COc1ccc(-c2[nH]c3ccc(-c4nnc(C5CCN(C6CCN(C)CC6)CC5)o4)cc3c2C(C)C)cc1OC [Example 21, 2-(2-(3,4-dimethoxyphenyl)-3-isopropyl-1H-indol-5-yl)-5-(1′-methyl-[1,4′-bipiperidin]-4-yl)-1,3,4-oxadiazole]	0.06	0.02	0.626
Cc1cc(-c2[nH]c3ccc(-c4nnc(C(C)CN)o4)cc3c2C(C)C)ccn1 (stereo not drawn) [Example 263, 2-(5-(3-isopropyl-2-(2-methylpyridin-4-yl)-1H-indol-5-yl)-1,3,4-oxadiazol-2-yl)propan-1-amine]	0.05	0.0032	0.869
Cc1cc(-c2[nH]c3ccc(-c4nnc(C5CCCNC5)[nH]4)cc3c2C(C)C)cc(C)n1 (stereo not drawn) [Example 323, 2-(2,6-dimethylpyridin-4-yl)-3-isopropyl-5-(5-(piperidin-3-yl)-4H-1,2,4-triazol-3-yl)-1H-indole]	0.013	0.01	0.322
CC(C)c1c(-c2ccnc3[nH]ncc23)[nH]c2ccc(-c3nnc(CNC45CC6CC(CC(C6)C4)C5)o3)cc12 [Example 151, N-((5-(3-isopropyl-2-(1H-pyrazolo[3,4-b]pyridin-4-yl)-1H-indol-5-yl)-1,3,4-oxadiazol-2-yl)methyl)adamantan-1-amine]	5.34	0.018	> 50
COc1ccc(-c2[nH]c3ccc(-c4cccc(-c5cccc(CN6CCOCC6)c5)c4)cc3c2C(C)C)cc1OC [Example 396, 4-((3′-(2-(3,4-dimethoxyphenyl)-3-isopropyl-1H-indol-5-yl)-[1,1′-biphenyl]-3-yl)methyl)morpholine]	2.31	0.519	> 50
Cc1cc(-c2[nH]c3ccc(-c4ccnc(N5CCNCC5)c4)cc3c2C(C)C)ccn1 [Example 273, 3-isopropyl-2-(2-methylpyridin-4-yl)-5-(2-(piperazin-1-yl)pyridin-4-yl)-1H-indole]	0.045	0.0058	0.79
CCOCCNCc1nnc(-c2ccc3[nH]c(-c4ccc(OC)c(OC)c4)c(C(C)C)c3c2)o1 [Example 111, N-((5-(2-(3,4-dimethoxyphenyl)-3-isopropyl-1H-indol-5-yl)-1,3,4-oxadiazol-2-yl)methyl)-2-ethoxyethan-1-amine]	0.157	0.266	> 50
Cc1cc(-c2[nH]c3ccc(-c4nnc(C5CCCN(C(C)C)C5)[nH]4)cc3c2C(C)C)ccn1 (stereo not drawn) [Example 205, 3-isopropyl-5-(5-(1-isopropylpiperidin-3-yl)-4H-1,2,4-triazol-3-yl)-2-(2-methylpyridin-4-yl)-1H-indole]	0.032	0.0055	0.243
CC(C)c1c(-c2ccnc3[nH]ncc23)[nH]c2ccc(-c3nnc([C@H]4CCCNC4)o3)cc12 [Example 126, (S)-2-(3-isopropyl-2-(1H-pyrazolo[3,4-b]pyridin-4-yl)-1H-indol-5-yl)-5-(piperidin-3-yl)-1,3,4-oxadiazole]	0.045	0.0034	0.389
